From patent US20130337579A1, “Methods for Determining Protein Ligand Binding” (UNIVERSITY OF MARYLAND, COLLEGE PARK, priority 2010, published 2013)

What was measured:
[1] = test system: lysates from various organisms or tissues; test: DRaCALA analysis of cdiGMP binding by lysates from various organisms or tissues
Alg44PilZ = target: T1, Alg44PilZ (Pseudomonas aeruginosa, UniProt Q9HY69); details: previously determined by ITC (Merighi 2007); cited from earlier work
T1 construct: Previous studies of the dissociation rate of cdiGMP from Alg44PilZ

E. coli CRP = target: T2, E. coli CRP (Escherichia coli, UniProt P0ACJ8); test: DRaCALA binding of radiolabeled nucleotides to purified CRP; details: 20 μM purified protein; 500 nM 14C-cAMP, 4 nM 32P-ATP or 4 nM 32P-cdiGMP
T2 construct: His; made in house
Experimental: Radiolabeled ligands were incubated with each of the proteins and the mixtures were spotted on nitrocellulose. After spreading by capillary action, membranes were dried and quantitated by phosphorimager. […] The specificity of Alg44PilZ binding to cdiGMP was further tested by competition with excess unlabeled nucleotides (400-fold molar excess relative to the Alg44PilZ protein).
Protein or whole cell lysates in 1× cdiGMP binding buffer (20 μl) was mixed with 4 nM of radiolabeled nucleotide and allowed to incubate for 10 minutes at room temperature. Radiolabeled nucleotide was competed away by cold nucleotides in concentrations and for times indicated. Purified proteins were tested in technical replicates. Whole cell lysates in FIG. 4 and FIG. 12 were tested in biological triplicates. Whole cell lysates in FIG. 5 were tested in technical replicates. These mixtures were pipetted (2.5-5 μl) onto dry, untreated nitrocellulose (GE Healthcare) in triplicate and allowed to dry completely before quantification. An FLA7100 Fujifilm Life Science Phosphorimager was used to detect luminescence following a 5-minute exposure of blotted nitrocellulose to phosphorimager film. Data was quantified using Fujifilm Multi Gauge software v3.0.

[2] = target: T3, Alg44PilZ expressed in E. coli BL21(DE3) (Pseudomonas aeruginosa, UniProt Q9HY69); test: DRaCALA of whole cell lysates of E. coli BL21(DE3) expressing Alg44PilZ; format: binding, P. aeruginosa
T3 construct: E. coli BL21(DE3) expressing Alg44PilZ and variants; expressed in transfected cells; host or cells: E. coli BL21(DE3), whole cell lysate
From the text: A major limitation of most biochemical assays is the requirement for purified protein. We asked whether DRaCALA could be applied to crude extracts to overcome this limitation. Alg44PilZ binding to cdiGMP requires a number of conserved residues, including R17, R21, D44 and S46, in the PilZ domain of the protein. E. coli BL21(DE3) expressing Alg44PilZ and variants with R21A, D44A, S46A, and R17A/R21A substitutions were lysed and tested for binding to cdiGMP using DRaCALA. […] Only the whole cell lysates from E. coli expressing wild-type Alg44PilZ sequestered ^32P-cdiGMP (FIG. 4A). […] A significant difference between the bound fractions for cdiGMP or GTP competition experiments was detected for the wild-type Alg44PilZ, but not for the PilZ domain mutants (FIGS. 4A and 4B). […]
Protein or whole cell lysates in 1× cdiGMP binding buffer (20 μl) was mixed with 4 nM of radiolabeled nucleotide and allowed to incubate for 10 minutes at room temperature. […] These mixtures were pipetted (2.5-5 μl) onto dry, untreated nitrocellulose (GE Healthcare) in triplicate and allowed to dry completely before quantification. An FLA7100 Fujifilm Life Science Phosphorimager was used to detect luminescence following a 5-minute exposure of blotted nitrocellulose to phosphorimager film. Data was quantified using Fujifilm Multi Gauge software v3.0. […]

Vc2* riboswitch RNA = test: DRaCALA of cdiGMP binding to biotinylated Vc2* RNA immobilized by streptavidin; details: Vc2*-biotin RNA diluted, 4 nM 32P-cdiGMP
Experimental: FIG. 19. Vc2* RNA binding to ^32P-cdiGMP is detected by DRaCALA. (A) Spots visualized by phosphorimager with streptavidin used to immobilize biotinylated RNA. The binding reaction contained 4 nM ^32P-cdiGMP, 1 μM RNA, and 200 nM streptavidin in buffer (10 mM KCl, 10 mM sodium cacodylate, 3 mM MgCl2). (B) The affinity of Vc2*-biotin RNA for cdiGMP was determined with both EMSA and DRaCALA by diluting RNA in the binding reaction. The fraction bound is normalized such that 1.0 represents maximal binding.
We have shown that protein interaction with DNA can be detected by DRaCALA. We wondered if the principle of DRaCALA would also apply to ribonucleic acids. In particular, can the DRaCALA technology be used to detect the interaction of riboswitches with their small molecule ligands. One example of such an interaction that has been of recent interest is the cdiGMP responsive Vc2 riboswitch identified in bacteria. To study such an interaction with DRaCALA, one of the binding partners must be immobilized. […] The biotinylated riboswitch was sequestered by streptavidin, allowing the nucleic acid to take the place of protein as the immobile partner in the binding assay. Vc2* was tested directly for sequestration of cdiGMP and also biotinylated and tested for binding to cdiGMP in the presence or absence of streptavidin. […]

T3 sequence (Q9HY69 16-116): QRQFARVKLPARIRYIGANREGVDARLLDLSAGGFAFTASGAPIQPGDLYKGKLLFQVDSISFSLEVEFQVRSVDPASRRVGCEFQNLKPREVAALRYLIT
T1 sequence (Q9HY69 16-116): as above
T2 sequence (P0ACJ8 whole entry): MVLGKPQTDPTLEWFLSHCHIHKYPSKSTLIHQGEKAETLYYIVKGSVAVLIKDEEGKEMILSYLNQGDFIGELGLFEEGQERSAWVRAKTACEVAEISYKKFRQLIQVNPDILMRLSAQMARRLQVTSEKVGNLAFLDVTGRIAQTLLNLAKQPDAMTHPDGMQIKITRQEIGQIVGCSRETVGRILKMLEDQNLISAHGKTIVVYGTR

Nc1nc2c(ncn2[C@@H]2O[C@@H]3CO[P@](=O)(O)O[C@H]4[C@@H](O)[C@H](n5cnc6c(=O)[nH]c(N)nc65)O[C@@H]4CO[P@](=O)(O)O[C@H]3[C@H]2O)c(=O)[nH]1 [cdiGMP, cyclic-di-GMP]
BC (non-specific binding) ([1]; mammalian tissue extracts from rodent and human cell lines): > 0.233
BSp ([1]; whole cell extracts of protozoa, fungi and nematodes): below 1.17
Kd (Alg44PilZ): 5600 nM
binding to CRP (sequestration of radiolabel signal) (E. coli CRP): did not bind
specific sequestration by whole cell extracts with soluble or insoluble protein ([2]; Alg44PilZ with or without MBP tag, BL21 whole cell extracts): specifically sequester
sequestration of 32P-cdiGMP by whole cell lysate ([2]; E. coli BL21(DE3) expressing wild-type Alg44PilZ): sequestered
Kd (Vc2* riboswitch RNA): 7.8 nM
